Structures are written as SMILES. pIC50: −log10 of the molar value. A value given as a limit tells only on which side of the number the result lay.

The target of the experiment is T1, human NOX4 (Homo sapiens, UniProt Q9NPH5).
T1 construct: expressed in transfected cells; membrane fraction used
T1 sequence (Q9NPH5 1-578): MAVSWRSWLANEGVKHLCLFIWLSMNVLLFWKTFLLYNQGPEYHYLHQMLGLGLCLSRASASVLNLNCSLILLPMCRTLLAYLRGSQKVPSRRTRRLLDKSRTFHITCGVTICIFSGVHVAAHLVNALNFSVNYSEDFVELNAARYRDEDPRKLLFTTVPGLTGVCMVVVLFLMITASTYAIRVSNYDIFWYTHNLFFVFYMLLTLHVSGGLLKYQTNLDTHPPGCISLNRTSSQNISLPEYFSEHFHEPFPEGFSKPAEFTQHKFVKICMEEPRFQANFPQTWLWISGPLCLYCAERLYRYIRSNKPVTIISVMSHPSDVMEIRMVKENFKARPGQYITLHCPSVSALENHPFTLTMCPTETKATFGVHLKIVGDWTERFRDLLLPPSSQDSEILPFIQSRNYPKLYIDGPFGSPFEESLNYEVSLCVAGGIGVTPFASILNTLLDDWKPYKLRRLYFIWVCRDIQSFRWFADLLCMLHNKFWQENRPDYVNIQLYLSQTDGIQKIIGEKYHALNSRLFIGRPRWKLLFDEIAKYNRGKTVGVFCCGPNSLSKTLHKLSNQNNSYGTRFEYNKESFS
T1 sequence (P13498 1-195 partner): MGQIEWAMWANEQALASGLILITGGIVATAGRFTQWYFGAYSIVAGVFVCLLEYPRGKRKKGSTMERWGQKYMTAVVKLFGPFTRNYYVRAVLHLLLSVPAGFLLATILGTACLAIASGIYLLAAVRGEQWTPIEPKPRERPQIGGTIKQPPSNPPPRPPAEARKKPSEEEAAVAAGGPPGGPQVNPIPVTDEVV
The experiment in a line: Cell free membrane based in vitro NOX4 assay: H2O2 production by membranes expressing human NOX4, measured with Amplex Red. The format is biochemical. As to conditions: for inhibition at 1 µM: 1.0 μM compound, read-out: Percentage inhibition at 1.0 μM; for inhibition at 10 µM: 10.0 μM compound, read-out: Percentage inhibition at 10.0 μM; for pIC50: class symbols. The procedure, abridged: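 IC50 came from concentration-response curves fitted as % of the inhibitor-free maximum. H2O2 formation was monitored for 10 min via Amplex Red/HRP fluorescence (544/590 nm) after NADPH start. Membranes from a stable hNOX4/HEK line had 20 min exposure to inhibitor beforehand at pH 7.4.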

As for `Cn1nc(C(F)(F)F)c2c(=O)c(O)c(-c3ccc(Cl)cc3F)[nH]c21` [Example 52, 6-(4-Chloro-2-fluorophenyl)-5-hydroxy-1-methyl-3-(trifluoromethyl)-1,7-dihydro-4H-pyrazolo[3,4-b]pyridin-4-one], the inhibition at 1 µM came out at 75.8%, the inhibition at 10 µM was 94.9% and the pIC50 was below 6.82.

`COc1ccc(-c2[nH]c3c(c(C(F)(F)F)nn3C)c(=O)c2O)cc1` [Example 53, 5-Hydroxy-6-(4-methoxyphenyl)-1-methyl-3-(trifluoromethyl)-1,7-dihydro-4H-pyrazolo[3,4-b]pyridin-4-one]: the inhibition at 1 µM amounted to 90.5%, the inhibition at 10 µM was determined as 84.6% and the pIC50 is 6.82 to 7.00.

Regarding `Cn1nc(C(F)(F)F)c2c(=O)c(O)c(-c3ccc(-n4ccnc4)cc3)[nH]c21` [Example 54, 5-Hydroxy-6-[4-(1H-imidazol-1-yl)phenyl]-1-methyl-3-(trifluoromethyl)-1,7-dihydro-4H-pyrazolo[3,4-b]pyridin-4-one], the inhibition at 1 µM worked out at 92.1%, the inhibition at 10 µM amounted to 94.5% and the pIC50 was 6.82 to 7.00.

Regarding `Cn1nc(C(F)(F)F)c2c(=O)c(O)c(-c3ccncc3)[nH]c21` [Example 55, 5-Hydroxy-1-methyl-6-(pyridin-4-yl)-3-(trifluoromethyl)-1,7-dihydro-4H-pyrazolo[3,4-b]pyridin-4-one], the inhibition at 1 µM worked out at 83.8%, the inhibition at 10 µM worked out at 94.2% and the pIC50 is below 6.82.

Regarding `CCc1nn(C)c2[nH]c(-c3ccccc3Cl)c(O)c(=O)c12` [Example 56, 6-(2-Chlorophenyl)-3-ethyl-5-hydroxy-1-methyl-1,7-dihydro-4H-pyrazolo[3,4-b]pyridin-4-one], the inhibition at 1 µM worked out at 82.4%, the inhibition at 10 µM was determined as 69.8% and the pIC50 is above 7.30.

Consider `Cn1nc2[nH]c(-c3ccccc3Cl)c(O)c(=O)c2c1Cc1ccccc1F` [Example 57, 6-(2-Chlorophenyl)-3-(2-fluorobenzyl)-5-hydroxy-2-methyl-2,7-dihydro-4H-pyrazolo[3,4-b]pyridin-4-one], for which the inhibition at 1 µM is 21.9% and the inhibition at 10 µM turned out to be 13.5%.

As for `Cn1nc2[nH]c(-c3ccccc3Cl)c(O)c(=O)c2c1-c1ccc(F)cc1` [Example 58, 6-(2-Chlorophenyl)-3-(4-fluorophenyl)-5-hydroxy-2-methyl-2,7-dihydro-4H-pyrazolo[3,4-b]pyridin-4-one], the inhibition at 1 µM amounted to 36.7% and the inhibition at 10 µM was 51.2%.

For the compound `Cc1c2c(=O)c(O)c(-c3ccccc3Cl)[nH]c2nn1C` [Example 59, 6-(2-Chlorophenyl)-5-hydroxy-2,3-dimethyl-2,7-dihydro-4H-pyrazolo[3,4-b]pyridin-4-one], the inhibition at 1 µM was determined as 41.1% and the inhibition at 10 µM worked out at 38.8%.

For `Cc1cc2c(=O)c(O)c(-c3ccccc3Cl)[nH]c2s1` [Example 60, 6-(2-Chlorophenyl)-5-hydroxy-2-methylthieno[2,3-b]pyridin-4(7H)-one], the inhibition at 1 µM is 77%, the inhibition at 10 µM was 100% and the pIC50 is below 6.82.

`Cc1cc2c(=O)c(O)c(-c3ccc(F)c(C(F)(F)F)c3)[nH]c2s1` [Example 61, 6-[4-Fluoro-3-(trifluoromethyl)phenyl]-5-hydroxy-2-methylthieno[2,3-b]pyridin-4(7H)-one]: the inhibition at 1 µM was 100%, the inhibition at 10 µM is 100% and the pIC50 is 7.00 to 7.30.

Turning to `Cc1nc2c(=O)c(O)c(-c3ccccc3Cl)[nH]c2s1` [Example 62, 5-(2-Chlorophenyl)-6-hydroxy-2-methyl[1,3]thiazolo[5,4-b]pyridin-7(4H)-one], the inhibition at 1 µM is 39%, the inhibition at 10 µM is 98% and the pIC50 was below 6.82.

Consider `O=c1c(O)c(-c2ccccc2Cl)[nH]c2sc(C(F)(F)F)nc12` [Example 63, 5-(2-Chlorophenyl)-6-hydroxy-2-trifluoromethyl[1,3]thiazolo[5,4-b]pyridin-7(4H)-one], for which the inhibition at 1 µM came to 58.6%, the inhibition at 10 µM was 100% and the pIC50 is below 6.82.

Take `Cc1noc2[nH]c(-c3ccccc3Cl)c(O)c(=O)c12` [Example 64, 6-(2-Chlorophenyl)-5-hydroxy-3-methyl[1,2]oxazolo[5,4-b]pyridin-4(7H)-one]: the inhibition at 1 µM turned out to be 68.8%, the inhibition at 10 µM is 100% and the pIC50 is below 6.82.

Regarding `COCCOc1ccc(-c2[nH]c3c(c(C)nn3C)c(=O)c2O)c(Cl)c1` [Example 65, 6-(2-Chloro-4-(2-methoxyethoxy)phenyl)-5-hydroxy-1,3-dimethyl-1H-pyrazolo[3,4-b]pyridin-4(7H)-one], the inhibition at 1 µM came out at 74.7%, the inhibition at 10 µM is 63.1% and the pIC50 was below 6.82.

On to `COCCOc1ccc(-c2[nH]c3c(c(C(F)(F)F)nn3C)c(=O)c2O)c(F)c1` [Example 66, 6-(2-Fluoro-4-(2-methoxyethoxy)phenyl)-5-hydroxy-1-methyl-3-(trifluoromethyl)-1H-pyrazolo[3,4-b]pyridin-4(7H)-one], for which the inhibition at 1 µM turned out to be 100%, the inhibition at 10 µM was 100% and the negative-log IC50 (pIC50) is below 6.82.

`COc1cc(F)c(-c2[nH]c3c(c(C)nn3C)c(=O)c2O)c(F)c1` [Example 67, 6-(2,6-Difluoro-4-methoxyphenyl)-5-hydroxy-1,3-dimethyl-1H-pyrazolo[3,4-b]pyridin-4(7H)-one]: the inhibition at 1 µM turned out to be 87.1%, the inhibition at 10 µM is 85.7% and the pIC50 is 7.00 to 7.30.

`CCn1nc(C)c2c(=O)c(O)c(-c3c(F)cccc3F)[nH]c21` [Example 68, 6-(2,6-Difluorophenyl)-1-ethyl-5-hydroxy-3-methyl-1H-pyrazolo[3,4-b]pyridin-4(7H)-one]: the inhibition at 1 µM was 84.3%, the inhibition at 10 µM is 80.3% and the pIC50 is 7.00 to 7.30.

Regarding `CCn1nc(C)c2c(=O)c(O)c(-c3ccc(OC)cc3F)[nH]c21` [Example 69, 1-Ethyl-6-(2-fluoro-4-methoxyphenyl)-5-hydroxy-3-methyl-1H-pyrazolo[3,4-b]pyridin-4(7H)-one], the inhibition at 1 µM was found to be 67.2% and the pIC50 is below 6.82.

On to `COc1ccc(-c2[nH]c3c(c(C)nn3CC(F)(F)F)c(=O)c2O)c(F)c1` [Example 70, 6-(2-Fluoro-4-methoxyphenyl)-5-hydroxy-3-methyl-1-(2,2,2-trifluoroethyl)-1H-pyrazolo[3,4-b]pyridin-4(7H)-one], for which the inhibition at 1 µM is 97.5%, the inhibition at 10 µM amounted to 98.4% and the pIC50 is below 6.82.

For `CCc1nn(C)c2[nH]c(-c3c(F)cccc3F)c(O)c(=O)c12` [Example 71, 6-(2,6-Difluorophenyl)-3-ethyl-5-hydroxy-1-methyl-1H-pyrazolo[3,4-b]pyridin-4(7H)-one], the inhibition at 1 µM is 81.5%, the inhibition at 10 µM came to 79.3% and the pIC50 is above 7.30.

As to `CCc1nn(C)c2[nH]c(-c3ccc(OC)cc3F)c(O)c(=O)c12` [Example 72, 3-Ethyl-6-(2-fluoro-4-methoxyphenyl)-5-hydroxy-1-methyl-1H-pyrazolo[3,4-b]pyridin-4(7H)-one], the inhibition at 1 µM amounted to 82.2% and the pIC50 is 6.82 to 7.00.

On to `CCc1nn(C)c2[nH]c(-c3ccc(OC)cc3Cl)c(O)c(=O)c12` [Example 73, 6-(2-Chloro-4-methoxyphenyl)-3-ethyl-5-hydroxy-1-methyl-1H-pyrazolo[3,4-b]pyridin-4(7H)-one], for which the inhibition at 1 µM amounted to 79.8%, the inhibition at 10 µM amounted to 73.1% and the pIC50 is 7.00 to 7.30.

`Cc1nn(C(C)C)c2[nH]c(-c3c(F)cccc3F)c(O)c(=O)c12` [Example 74, 6-(2,6-Difluorophenyl)-5-hydroxy-1-isopropyl-3-methyl-1H-pyrazolo[3,4-b]pyridin-4(7H)-one]: the inhibition at 1 µM was 91.1%, the inhibition at 10 µM came to 90.3% and the negative logarithm of the IC50 (pIC50) was 7.00 to 7.30.

For `CC(C)c1c2c(=O)c(O)c(-c3ccccc3Cl)[nH]c2nn1C` [Example 75, 6-(2-Chlorophenyl)-5-hydroxy-3-isopropyl-2-methyl-2H-pyrazolo[3,4-b]pyridin-4(7H)-one], the inhibition at 1 µM was 1.59% and the inhibition at 10 µM worked out at 12.5%.

`Cc1nn(Cc2ccccc2)c2[nH]c(-c3c(F)cccc3F)c(O)c(=O)c12` [Example 76, 1-Benzyl-6-(2,6-difluorophenyl)-5-hydroxy-3-methyl-1H-pyrazolo[3,4-b]pyridin-4(7H)-one]: the inhibition at 1 µM came to 95%, the inhibition at 10 µM is 93.5% and the pIC50 is above 7.30.

As usually defined, the inhibition is the drop in the measured response relative to a control, in per cent. Usually pIC50 stands for −log10 of the IC50, conventionally taken in molar units. Low readings indicate a large IC50, high ones a small IC50.
